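Assay format: 96-well plates, 48-hour exposure. Here, GI50 denotes the concentration required for 50% inhibition of growth. Definition used: TGI = concentration required for complete inhibition of growth.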
Key:
Assay in all cases: inhibition of tumour cell growth, NCI panel, 48 h
SF-268 CNS = test system: SF-268 CNS
NCI-H23 lung = test system: NCI-H23 lung
MDA-MB-435 = test system: MDA-MB-435
OVCAR-8 ovarian = test system: OVCAR-8 ovarian
SR leukemia = test system: SR leukemia
EKVX NSCLC = test system: EKVX NSCLC
U251 CNS = test system: U251 CNS
HT29 colon = test system: HT29 colon
TK-10 renal = test system: TK-10 renal
UACC-62 melanoma = test system: UACC-62 melanoma

## O=C(O)c1ccc(NC(c2ccccc2)c2ccc3cccnc3c2O)cc1 (stereo not drawn)
SF-268 CNS
  TGI: > 100 µM
NCI-H23 lung
  TGI: > 100 µM
MDA-MB-435
  TGI: > 100 µM
OVCAR-8 ovarian
  TGI: > 41.5 µM
SR leukemia
  TGI: > 100 µM
EKVX NSCLC
  TGI: > 85.6 µM
U251 CNS
  TGI: > 41.2 µM
HT29 colon
  TGI: > 100 µM
TK-10 renal
  TGI: 71.6 µM
UACC-62 melanoma
  TGI: 36.7 µM

## O=C1CC(=O)N(c2ccccc2)N1/C(=C/c1ccccc1)c1ccccc1
SF-268 CNS
  TGI: 36.3 µM
NCI-H23 lung
  TGI: 65.4 µM
MDA-MB-435
  TGI: 36.5 µM
OVCAR-8 ovarian
  TGI: 45.3 µM
SR leukemia
  TGI: 40.9 µM
EKVX NSCLC
  TGI: > 100 µM
U251 CNS
  TGI: 27.7 µM
HT29 colon
  TGI: 44.2 µM
TK-10 renal
  TGI: 48.6 µM
UACC-62 melanoma
  TGI: 37.3 µM

## COc1ccc(Nc2[nH]c(C(C)=O)c(N)c2C(=S)Nc2ccccc2)cc1
SF-268 CNS
  TGI: > 100 µM
NCI-H23 lung
  TGI: > 100 µM
MDA-MB-435
  TGI: > 100 µM
OVCAR-8 ovarian
  TGI: > 100 µM
SR leukemia
  TGI: > 100 µM
EKVX NSCLC
  TGI: > 100 µM
U251 CNS
  TGI: > 100 µM
HT29 colon
  TGI: > 100 µM
TK-10 renal
  TGI: > 100 µM
UACC-62 melanoma
  TGI: 95.7 µM

## O=C(NS(=O)(=O)Nc1ccc(Cl)cc1)OCc1ccc(Cl)cc1Cl
SF-268 CNS
  TGI: 20.6 µM
NCI-H23 lung
  TGI: 52.3 µM
MDA-MB-435
  TGI: 50.9 µM
OVCAR-8 ovarian
  TGI: 90.7 µM
SR leukemia
  TGI: > 100 µM
U251 CNS
  TGI: 66.7 µM
HT29 colon
  TGI: 51.2 µM
TK-10 renal
  TGI: 41.9 µM
UACC-62 melanoma
  TGI: 32.3 µM

## CCC(=O)C(c1ccccc1)c1ccccn1 (stereo not drawn)
SF-268 CNS
  TGI: > 100 µM
NCI-H23 lung
  TGI: > 100 µM
MDA-MB-435
  TGI: > 100 µM
OVCAR-8 ovarian
  TGI: > 100 µM
EKVX NSCLC
  TGI: > 100 µM
U251 CNS
  TGI: > 100 µM
HT29 colon
  TGI: > 100 µM
TK-10 renal
  TGI: > 100 µM
UACC-62 melanoma
  TGI: > 100 µM

## C=CC(=O)Nc1cccc(-c2nc(SC)nc(Nc3ccccc3OC)c2C#N)c1
SF-268 CNS
  GI50: 2.85 µM
  TGI: 14.3 µM
NCI-H23 lung
  GI50: 2.15 µM
  TGI: 5.99 µM
MDA-MB-435
  GI50: 1.93 µM
  TGI: 4.48 µM
OVCAR-8 ovarian
  GI50: 2.07 µM
  TGI: 5.42 µM
SR leukemia
  GI50: 1.49 µM
  TGI: 4.19 µM
EKVX NSCLC
  GI50: 2.71 µM
  TGI: 10.4 µM
TK-10 renal
  GI50: 1.99 µM
  TGI: 4.02 µM
UACC-62 melanoma
  GI50: 2.81 µM
  TGI: 14.6 µM

## C/C(=N\NC(=S)NC(C)C)c1nc2ncccc2[nH]1
SF-268 CNS
  TGI: > 100 µM
OVCAR-8 ovarian
  TGI: 52.7 µM
SR leukemia
  TGI: > 100 µM
EKVX NSCLC
  TGI: > 69.7 µM
U251 CNS
  TGI: > 100 µM
HT29 colon
  TGI: > 100 µM
TK-10 renal
  TGI: 73.8 µM
UACC-62 melanoma
  TGI: 98.7 µM

## Cc1[nH]c(/C=C2\C(=O)Nc3ccc(S(=O)(=O)Cc4c(Cl)cccc4Cl)cc32)c(C)c1C(=O)N1CCC[C@@H]1CN1CCCC1
SF-268 CNS
  GI50: 1.6 µM
  TGI: 4.03 µM
NCI-H23 lung
  GI50: 4.38 µM
  TGI: 12.3 µM
MDA-MB-435
  GI50: 0.865 µM
  TGI: 2.2 µM
OVCAR-8 ovarian
  GI50: 1.88 µM
  TGI: 4.37 µM
HT29 colon
  GI50: 1.62 µM
  TGI: 3.07 µM
TK-10 renal
  GI50: 1.92 µM
  TGI: 3.85 µM

## Nc1n[nH]c(=O)[nH]1
SF-268 CNS
  TGI: > 100 µM
NCI-H23 lung
  TGI: > 100 µM
OVCAR-8 ovarian
  TGI: > 100 µM
EKVX NSCLC
  TGI: > 100 µM
U251 CNS
  TGI: > 100 µM
HT29 colon
  TGI: > 100 µM
UACC-62 melanoma
  TGI: > 100 µM

## CSC1=Nc2ccccc2N(C)c2c1c(-c1ccccc1)nn2C
SF-268 CNS
  TGI: > 100 µM
NCI-H23 lung
  TGI: > 100 µM
MDA-MB-435
  TGI: > 100 µM
OVCAR-8 ovarian
  TGI: > 100 µM
SR leukemia
  TGI: 95 µM
EKVX NSCLC
  TGI: > 100 µM
U251 CNS
  TGI: > 100 µM
HT29 colon
  TGI: > 100 µM
TK-10 renal
  TGI: > 100 µM
UACC-62 melanoma
  TGI: > 100 µM

## CCn1cc(C(c2ccc(Cl)cc2)n2ccnc2)c2cc(Br)ccc21 (stereo not drawn)
SF-268 CNS
  TGI: 27.4 µM
NCI-H23 lung
  TGI: 31.1 µM
MDA-MB-435
  TGI: 27 µM
OVCAR-8 ovarian
  TGI: 31.6 µM
SR leukemia
  TGI: 36.8 µM
EKVX NSCLC
  TGI: > 100 µM
U251 CNS
  TGI: 30.5 µM
HT29 colon
  TGI: 22.3 µM
TK-10 renal
  TGI: 33.7 µM
UACC-62 melanoma
  TGI: 25.2 µM

## N#Cc1c(NC(=S)NC(=O)c2ccccc2)nc2c(c1-c1ccccc1)CCC2
SF-268 CNS
  TGI: > 100 µM
NCI-H23 lung
  TGI: > 100 µM
MDA-MB-435
  TGI: > 100 µM
OVCAR-8 ovarian
  TGI: > 100 µM
SR leukemia
  TGI: > 100 µM
EKVX NSCLC
  TGI: > 100 µM
U251 CNS
  TGI: > 100 µM
HT29 colon
  TGI: > 100 µM
TK-10 renal
  TGI: > 100 µM
UACC-62 melanoma
  TGI: > 100 µM

## CC(C)CC(N)C(=O)OCN1C(=O)C2C3C=CC(C2C1=O)C1C2C(=O)N(COC(=O)C(N)CC(C)C)C(=O)C2C31 (stereo not drawn)
SF-268 CNS
  TGI: > 100 µM
NCI-H23 lung
  TGI: > 100 µM
OVCAR-8 ovarian
  TGI: > 100 µM
EKVX NSCLC
  TGI: > 100 µM
U251 CNS
  TGI: > 100 µM
HT29 colon
  TGI: > 100 µM
TK-10 renal
  TGI: > 100 µM
UACC-62 melanoma
  TGI: > 100 µM

## Nc1ccccc1Nc1ccccc1C(=O)[O-].Nc1ccccc1Nc1ccccc1C(=O)[O-].[Cu+2]
SF-268 CNS
  TGI: > 100 µM
NCI-H23 lung
  TGI: > 100 µM
OVCAR-8 ovarian
  TGI: > 100 µM
EKVX NSCLC
  TGI: > 100 µM
U251 CNS
  TGI: > 100 µM
HT29 colon
  TGI: > 100 µM
TK-10 renal
  TGI: > 100 µM
UACC-62 melanoma
  TGI: 44.3 µM

## O=C(Nc1ccc(I)cc1C(=O)NCCO)c1cccs1
SF-268 CNS
  TGI: > 100 µM
NCI-H23 lung
  TGI: > 100 µM
MDA-MB-435
  TGI: > 100 µM
OVCAR-8 ovarian
  TGI: > 100 µM
SR leukemia
  TGI: > 100 µM
EKVX NSCLC
  TGI: > 100 µM
U251 CNS
  TGI: > 100 µM
HT29 colon
  TGI: > 100 µM
UACC-62 melanoma
  TGI: > 100 µM

## Cc1ccc(-c2cc(N)n(-c3nc4c([nH]3)c(=O)n(C)c(=O)n4C)n2)cc1
SF-268 CNS
  TGI: 34.5 µM
NCI-H23 lung
  TGI: 28 µM
MDA-MB-435
  TGI: > 100 µM
OVCAR-8 ovarian
  TGI: 15.3 µM
SR leukemia
  TGI: > 100 µM
EKVX NSCLC
  TGI: 21.6 µM
U251 CNS
  TGI: > 100 µM
HT29 colon
  TGI: > 100 µM
TK-10 renal
  TGI: 26.4 µM
UACC-62 melanoma
  TGI: 22.7 µM

## OCC1CCCC(n2cnc3c(=S)nc[nH]c32)O1 (stereo not drawn)
SF-268 CNS
  TGI: > 100 µM
NCI-H23 lung
  TGI: > 100 µM
MDA-MB-435
  TGI: > 100 µM
OVCAR-8 ovarian
  TGI: > 100 µM
SR leukemia
  TGI: > 100 µM
EKVX NSCLC
  TGI: > 100 µM
U251 CNS
  TGI: > 100 µM
HT29 colon
  TGI: > 100 µM
TK-10 renal
  TGI: > 100 µM
UACC-62 melanoma
  TGI: > 100 µM

## COC1OC(=O)[C@H]2O[N+]([O-])=C(C)[C@@H]12 (stereo partly drawn)
SF-268 CNS
  TGI: > 100 µM
NCI-H23 lung
  TGI: > 100 µM
OVCAR-8 ovarian
  TGI: > 100 µM
EKVX NSCLC
  TGI: > 100 µM
U251 CNS
  TGI: > 100 µM
HT29 colon
  TGI: > 100 µM
UACC-62 melanoma
  TGI: > 100 µM

From PubChem BioAssay (NCI)
